Values joined by “and” are separate entries in the source; they are usually repeats but may differ in a detail not shown here. Equal values may be shown once.
Assay: Accelerated air oxidation of furfural, Total Acid Number (TAN) by potentiometric titration
Settings: 25 psig air, 300° F., 2 hours
Experimental: In this example, distilled furfural was treated with prospective stabilizers, over-pressured with 25 psig of air, heated to 300° F., and held at temperature for 2 hours to allow for an accelerated rate of furfural oxidation. Total Acid Number (TAN) titrations were then conducted by potentiometric titration on the treated furfural samples, an untreated (blank), and a sample of the original distilled material (control), which was not heated to 300° F. The acid number, expressed as mg KOH/g, is a measure of the acid generated during air oxidation of furfural. Performance of inhibitors was expressed as a percent inhibition by the following equation: […]

SMILES: CCC(C)Nc1ccc(NC(C)CC)cc1 (stereo not shown) [Compound #1]
- % Inhibition @ ppmA (250 ppmA stabilizer): 69%
- % Inhibition @ ppmA (500 ppmA stabilizer): 106% and 114%
- % Inhibition @ ppmA (1000 ppmA stabilizer): 88% and 170%
- % Inhibition @ ppmA (2000 ppmA stabilizer): 57%

SMILES: CCC(C)CC(C)Nc1ccc(Nc2ccccc2)cc1 (stereo not shown) [Compound #2]
- % Inhibition @ ppmA (250 ppmA stabilizer): 15%
- % Inhibition @ ppmA (500 ppmA stabilizer): 37%
- % Inhibition @ ppmA (1000 ppmA stabilizer): 56%

SMILES: Cc1cc(C(C)(C)C)c(O)c(C(C)(C)C)c1 [Compound #3, 2,6-di-tert-butyl-4-methylphenol]
- % Inhibition @ ppmA (250 ppmA stabilizer): −10%
- % Inhibition @ ppmA (500 ppmA stabilizer): −5%
- % Inhibition @ ppmA (1000 ppmA stabilizer): 12%

SMILES: CC(C)CC(C)N=C1C=CC(=Nc2ccccc2)C=C1 (stereo not shown) [Compound #4]
- % Inhibition @ ppmA (250 ppmA stabilizer): 48%
- % Inhibition @ ppmA (500 ppmA stabilizer): 76%
- % Inhibition @ ppmA (1000 ppmA stabilizer): 95%

Source: patent publication US6384249B1, “Compounds and methods for stabilization of furfural compositions” (Hercules, Inc., priority 2000, dated 2002)
